In article PMC10808981, “Synthesis and structure–activity relationships of aryl fluorosulfate-based inhibitors as novel antitubercular agents” (Bioorganic & Medicinal Chemistry Letters, 2024):
Like-named read-outs stand apart in the source and are kept apart here.

Columns and labels:
Mtb H37Rv = experiment: MIC determination in Mtb H37Rv, Microdilution Alamar Blue Assay (MABA); assay type: cell-based, Mycobacterium tuberculosis
Mtb CDC1551 = experiment: Anti-TB activity against Mtb CDC1551 (IC90), Alamar Blue; assay type: cell-based; conditions: Mycobacterium tuberculosis
Mtb H37Ra = experiment: microbe, parasite or virus in culture; assay type: cell-based; conditions: Mycobacterium tuberculosis, 168 h, read-out: H37Ra IC50
[1] = HEK293T cytotoxicity assay (Cell Titer-Glo); assay type: cell-based; conditions: human, HEK293T cells; HEK293T, 3 days
Protocol: (§1) HEK293T (ATCC) were grown in DMEM (Gibco Cat # 11965-092) supplemented with 10% heat-inactivated FBS, Pen Strep (Gibco) 1X in a 5% CO2 humidified atmosphere at 37◦C. Cells were washed once with DPBS 1X (Gibco), incubated for less than 5 minutes at room temperature in TrypLE solution (Gibco), washed once in propagation medium to remove trypsin, and counted with Trypan Blue. 5 µL of cell suspension ([…]) was dispensed into 1536-well plates containing serial 3-fold drug dilution ranging from 40 µM to 2 nM and incubated for 3 days in a 5% CO2 humidified atmosphere at 37 ◦C. Cell Titer-Glo® Luminescent Cell Viability Assay (Promega) reagent was diluted 1:1 with water and then 2 µL were added to plates. Luminescence was measured in a PHERAStar plate reader (BMG Labtech) and data normalized to negative control (DMSO) minus inhibitor (Puromycin 10 µM). Dose-response curves were fit using the Smart Fit function in Genedata Screener Analyzer (v16.0.8).

in vitro [2] = conditions: human
HEK293T cells = experiment: HEK293T cytotoxicity assay (Cell Titer-Glo); assay type: cell-based; conditions: for CC50: HEK293T, 3 days
Protocol: as §1

HepG2 cells = conditions: for CC50: read-out: HepG2 CC50, HepG2, 3 days
[3] = mouse
in vivo = conditions: mouse
in vitro [4] = conditions: mouse, plasma
in vitro [5] = conditions: mouse, po, 20 mg/kg
[6] = Mycobacterium tuberculosis, H37RV, 168 h, Mtb H37Rv, MABA, 7 days

In the case of O=S(=O)(F)Oc1ccc(OCc2ccc(-n3cncn3)cc2)cc1 [Compound 3a, 4-((4-(1H-1,2,4-triazol-1-yl)benzyl)oxy)phenyl sulfurofluoridate], the MIC (Mtb H37Rv; [6]) is reported as 2.84 µM, the IC90 (Mtb CDC1551) is reported as 4.71 µM and the IC50 (Mtb H37Ra) is reported as 1.5 µM. For the same molecule, the CC50 at 72 h [1] was 11.6 µM and the CC50 at 72 h (in vitro [2]) was 19.3 µM.

With CC(=O)Nc1ccc(COc2ccc(OS(=O)(=O)F)cc2)cc1 [Compound 2] the IC50 (Mtb H37Ra) was 1.3 µM.

In the case of CS(=O)(=O)Nc1ncn(-c2cc(F)c(COc3ccc(OS(=O)(=O)F)cc3)c(F)c2)n1 [Compound 21b, 4-((2,6-difluoro-4-(3-(methylsulfonamido)-1H-1,2,4-triazol-1-yl)benzyl)oxy)phenyl sulfurofluoridate], the “H37Rv MIC” value (Mtb H37Rv; Mtb H37Rv, MABA, 7 days) is reported as 0.06 ± 0.019 µM, the MIC (Mtb H37Rv; Mycobacterium tuberculosis, H37RV) is reported as 0.028 µg/mL and the MIC (Mtb H37Rv; [6]) is reported as 0.06 µM. The CC50 at 3 days [1] was over 40 µM, the “cytotoxicity against HEK293T (in words)” value (HEK293T cells) was “no cytotoxicity” and the “cytotoxicity against HepG2 (in words)” value (HepG2 cells) was “no cytotoxicity”. For the same molecule, the “coverage of plasma and lung levels above the H37Rv MIC” value ([3]; 20 mg/kg PO, total levels) was about 24 h, the “unbound levels of plasma and lung coverage over MIC” value ([3]; 20 mg/kg PO, unbound levels) was about 8 h and the AUC0-24 ([3]; IV 3 mg/kg) was 7,085 hr*ng/mL. For the same molecule, the Cl ([3]; IV 3 mg/kg) was 7.05 mL/min/kg, the T1/2 ([3]; IV 3 mg/kg) was 3.93 h and the Vd ([3]; IV 3 mg/kg) was 2.38 L/kg. For the same molecule, the AUC0-24 ([3]; PO 20 mg/kg) was 47,615 hr*ng/mL, the T1/2 ([3]; PO 20 mg/kg) was 2.57 h and the Tmax ([3]; PO 20 mg/kg) was 1.00 h. For the same molecule, the “Clung at 8 h” value ([3]; PO 20 mg/kg, lung, 8 h) was 1,596 ng/mL, the “Clung at 24 h” value ([3]; PO 20 mg/kg, lung, 24 h) was 14.1 ng/mL and the “Cplasma at 8 h” value ([3]; PO 20 mg/kg, plasma, 8 h) was 2,120 ng/mL. The “Cplasma at 24 h” value ([3]; PO 20 mg/kg, plasma, 24 h) was 22.6 ng/mL, the Cmax ([3]; in vivo, po, 20 mg/kg) was 9,290 ng/mL and the Cmax (in vivo; iv, 3 mg/kg) was 3310 ng/mL. For the same molecule, the bioavailability (in vivo; po, 20 mg/kg) was 99.4%, the CC50 (in vitro [2]) was over 40 µM and the fraction unbound (in vitro [4]) was 0.008. The fraction unbound (in vitro [5]) was 0.016.

For O=S(=O)(F)Oc1ccc(OCc2ccc(-n3cncn3)cc2F)cc1 [Compound 3d, 4-((2-fluoro-4-(1H-1,2,4-triazol-1-yl)benzyl)oxy)phenyl sulfurofluoridate], the MIC (Mtb H37Rv; [6]) was 0.6 µM, the IC90 (Mtb CDC1551) was 1.3 µM and the CC50 at 72 h [1] was 22.7 µM. It also gave a CC50 at 72 h (in vitro [2]) of 12.5 µM.

With O=S(=O)(F)Oc1ccc(OCc2ccc(-n3cncn3)cc2)cc1Cl [Compound 3c, 4-((4-(1H-1,2,4-triazol-1-yl)benzyl)oxy)-2-chlorophenyl sulfurofluoridate] the IC90 (Mtb CDC1551) was 4.64 µM, the CC50 at 72 h [1] was 3.7 µM and the “cytotoxicity against HEK293T (in words)” value (HEK293T cells) was “exhibited cytotoxicity”. The “cytotoxicity against HepG2 (in words)” value (HepG2 cells) was “exhibited cytotoxicity” and the CC50 at 72 h (in vitro [2]) was 5.8 µM.

For COc1cc(OCc2ccc(-n3cncn3)cc2)ccc1OS(=O)(=O)F [Compound 3b, 4-((4-(1H-1,2,4-triazol-1-yl)benzyl)oxy)-2-methoxyphenyl sulfurofluoridate], the “anti-TB activity against Mtb (in words)” value (Mtb H37Rv) was “not active”, the MIC (Mtb H37Rv; [6]) was 25 µM and the IC90 (Mtb CDC1551) was over 30 µM. It also gave a CC50 at 3 days [1] of over 40 µM and a CC50 at 72 h (in vitro [2]) of 13.3 µM.

Work on “4-((2,6-difluoro-4-(1H-1,2,3-triazol-1-yl)benzyl)oxy)phenyl sulfurofluoridate [Compound 3 m]” yielded an MIC (Mtb H37Rv; Mtb H37Rv, MABA, 7 days) of 0.22 µM, a CC50 (HEK293T cells) of over 40 µM and a CC50 (HepG2 cells) of over 40 µM.

In the case of “4-((2,6-difluoro-4-(3-isopropyl-1H-1,2,4-triazol-1-yl)benzyl)oxy)phenyl sulfurofluoridate [Compound 20 h]”, the MIC (Mtb H37Rv; Mtb H37Rv, MABA, 7 days) is reported as 0.31 µM, the CC50 (HEK293T cells) is reported as over 40 µM and the CC50 (HepG2 cells) is reported as over 40 µM.

Work on O=S(=O)(F)Oc1ccc(OCc2c(F)cc(-c3ncon3)cc2F)cc1 [Compound 19i, 4-((2,6-difluoro-4-(1,2,4-oxadiazol-3-yl)benzyl)oxy)phenyl sulfurofluoridate] yielded an MIC (Mtb H37Rv; Mtb H37Rv, MABA, 7 days) of 0.62 µM, an MIC (Mtb H37Rv; [6]) of under 1 µM and a CC50 at 3 days [1] of over 40 µM. For the same molecule, the CC50 (in vitro [2]) was over 40 µM.

In the case of CS(=O)(=O)c1ncn(-c2cc(F)c(COc3ccc(OS(=O)(=O)F)cc3)c(F)c2)n1 [Compound 20i, 4-((2,6-difluoro-4-(3-(methylsulfonyl)-1H-1,2,4-triazol-1-yl)benzyl)oxy)phenyl sulfurofluoridate], the MIC (Mtb H37Rv; [6]) is reported as 0.4 µM, the CC50 at 72 h [1] is reported as 17.2 µM and the CC50 at 72 h (in vitro [2]) is reported as 9.3 µM.

In the case of O=S(=O)(F)Oc1ccc(OCc2c(F)cc(-n3cncn3)cc2F)cc1 [Compound 3i, 4-((2,6-difluoro-4-(1H-1,2,4-triazol-1-yl)benzyl)oxy)phenyl sulfurofluoridate], the MIC (Mtb H37Rv; [6]) is reported as 0.6 µM, the CC50 at 3 days [1] is reported as over 40 µM and the “selectivity index (SI)” value (HepG2 cells; HepG2 cytotoxicity vs H37Rv MIC) is reported as 9.6. For the same molecule, the CC50 at 72 h (in vitro [2]) was 5.8 µM.

For O=S(=O)(F)Oc1ccc(OCc2c(F)cc(-n3ccnn3)cc2F)cc1 [Compound 3 l, 4-((2,6-difluoro-4-(1H-1,2,3-triazol-1-yl)benzyl)oxy)phenyl sulfurofluoridate], the MIC (Mtb H37Rv; [6]) was 0.16 µM, the CC50 at 72 h [1] was 27.7 µM and the CC50 at 72 h (in vitro [2]) was 17 µM.

O=C(O)c1ncn(-c2cc(F)c(COc3ccc(OS(=O)(=O)F)cc3)c(F)c2)n1 [Compound 20j, 1-(3,5-difluoro-4-((4-((fluorosulfonyl)oxy)phenoxy)methyl)phenyl)-1H-1,2,4-triazole-3-carboxylic acid] gave an MIC (Mtb H37Rv; [6]) of 1.25 µM, a CC50 at 3 days [1] of over 40 µM and a CC50 (in vitro [2]) of over 40 µM.
